The results in this text go back to patent US9708321B2, “Spiro-quinazolinone derivatives and their use as positive allosteric modulators of mGluR4” (Merck Patent GmbH, priority 2013, dated 2017).

The test addresses T1, hmGluR4 (Homo sapiens, UniProt Q14833).
T1 construct: host or cells: HEK293T
Put plainly: HEK-293 mGluR4 cells cAMP assay with EC20 L-Glutamate (HTRF). Type of test: cell-based. As to conditions: positive allosteric activity at EC20 L-Glutamate, 10 μM Forskolin, HEK293T mGluR4 cells, cAMP HTRF; read-out: hrmGluR4/HEK293T-hmGluR4 (EC50). Here is the method: II. Biological Assays HEK-293 mGluR4 Cells cAMP Assay with EC20 L-Glutamate
Using mGluR4 suspension cell format, 10 μM Forskolin (final conc.) used to induce the production of cAMP.
Test the positive allosteric activity of the compounds of the invention at EC20 (2.3 μM for mGluR4 and 4.3 μM for mGluR6) L-Glutamate,
cAMP dymanic2 kit is intended for the direct quantitative determination of cAMP and its principle is based on HTRF technology.
• Cells: HEK293T mGluR4 cells from Multispan, cat# C1191a lot# C1191a-040910 • Culture Media: DMEM+GlutaMAX1+10% dialyzed FBS, 100 mM Sodium Pyruvate, 1 ug/ml puromycin. • Glutamine Starvation Media: DMEM without GlutaMax for plating the cells (glutamine starvation overnight). DMEM high Glucose, without phenol red, glutamine, or sodium pyruvate+10% dialyzed FBS, 100 mM Sodium Pyruvate, 1 ug/ml puromycin, 10 mM Hepes. • Hanks' balanced Salt Solution, HBSS from Invitrogen • Greiner 384 well white low volume high base plate (784075) • cAMP dynamic2 from Cisbio Bioassays • Glutamate: L-Glutamaic acid, monosodium salt, Monohydrate, 98%, from Sigma-Aldrich • Cell Preparation: split cells at 80%-90% confluence. The following day, rinse the cells with DMEM without GlutaMax and change to Glutamine Starvation Media. Incubate overnight. Assay: • Prepare compound plate: Perform compound serial dilution (uses Matrix 4341 plate), using the Bravo liquid handling platform protocol (compound serial dilution) which adds DMSO to columns 1-24 (except cols. 3 and 13). Serial dilute compounds located in columns 3 and 13 at a 1:3 ratio; 10 points (10 ul of 3 mM compound into 20 ul DMSO). Use the Bravo liquid handling platform to transfer 1 ul from the serial dilution plate into Matrix 4314 plate to create stamp plates. Prepare Compound Dilution Buffer: • Dilute 20 mM Forskolin (in DMSO) stock solution in HBSS buffer to make a 20 uM solution (forskolin buffer; 2× solution). To the forskolin buffer, add glutamate to a concentration of 8 uM (compound dilution buffer; 2× EC20 glutamate and forskolin). • Using a multidrop, add 50 ul/well of compound dilution buffer to columns 1-22 of the 2 ul compound stamp plate. Columns 23 and 24 receive forskolin buffer containing 400 uM glutamate (EC100 glutamate; 2× solution). Columns 1 and 2 receive compound dilution buffer containing EC20 glutamate, which is the basal control. • Add a glutamate dose response to row P of compound plate. Prepare the dose response by serial diluting glutamate at a 1:3 ratio in forskolin buffer starting at 2 mM glutamate (2×). Dilute the glutamate 9 times and transfer to compound plate. Prepare Cell Plates: • Harvest cells: Rinse cells with pre-warmed HBSS-10 mM HEPES (without Ca Mg) and dissociate the cells from the flask with versene. Centrifuge the cells, remove the supernatant and suspend in pre-warmed HBSS+10 mM Hepes. Count the cells and centrifuge. Remove the supernatant and suspend the cells in HBSS+Hepes (with Ca Mg) at a density of 400,000 cells/ml. Perform Assay: • Dispense 5 ul from the diluted compound plate into Greiner low volume cell plate using the Bravo liquid handling platform. Using a Multidrop with the small tubing cassette, dispense 5 ul of cells (2000 cells/well) onto the compounds contained in the low volume plates. Incubate the cells at 37° C., 5% CO2 for 30 minutes in the incubator. Assay for cAMP: • Prepare cAMP-d2 and anti-cAMP-Crytate according to the instructions for the two step assay (see Cisbio manual) and add 10 ul of the mixed reagent to each well of the assay plate using the Multidrop. Incubate at room temperature for 60 minutes and read on the Envision plate reader using the mGluR low volume cAMP HTRF 384 well protocol.

Bounds are passed on as bounds.

T1 sequence (Q14833 33-912): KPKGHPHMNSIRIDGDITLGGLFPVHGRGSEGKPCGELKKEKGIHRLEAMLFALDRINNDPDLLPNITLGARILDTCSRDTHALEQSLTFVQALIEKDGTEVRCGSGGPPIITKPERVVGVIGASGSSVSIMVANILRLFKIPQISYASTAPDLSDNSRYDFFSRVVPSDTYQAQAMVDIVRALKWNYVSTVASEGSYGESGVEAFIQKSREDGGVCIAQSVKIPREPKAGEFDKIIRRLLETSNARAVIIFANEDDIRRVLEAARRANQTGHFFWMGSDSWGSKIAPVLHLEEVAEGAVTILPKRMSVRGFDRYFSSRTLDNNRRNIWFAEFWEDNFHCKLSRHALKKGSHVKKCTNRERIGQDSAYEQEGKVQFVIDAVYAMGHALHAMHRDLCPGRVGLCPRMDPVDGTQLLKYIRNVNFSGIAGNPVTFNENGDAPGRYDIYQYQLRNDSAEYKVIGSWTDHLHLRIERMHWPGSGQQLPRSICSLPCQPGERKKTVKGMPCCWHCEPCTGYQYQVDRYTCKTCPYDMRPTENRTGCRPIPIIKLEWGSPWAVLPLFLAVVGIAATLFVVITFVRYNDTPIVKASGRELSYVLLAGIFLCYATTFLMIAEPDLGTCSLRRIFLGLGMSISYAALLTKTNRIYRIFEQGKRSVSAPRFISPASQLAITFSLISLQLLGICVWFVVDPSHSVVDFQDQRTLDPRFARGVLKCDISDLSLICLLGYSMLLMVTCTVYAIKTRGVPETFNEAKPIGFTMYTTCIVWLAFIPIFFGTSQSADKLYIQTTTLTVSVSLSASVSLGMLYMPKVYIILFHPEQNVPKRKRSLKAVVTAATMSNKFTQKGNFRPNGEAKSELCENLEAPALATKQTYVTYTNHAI

As to `COc1ccc(N2C(=O)c3ccccc3NC23CN(Cc2ccccc2)C3)cc1` [Compound 92, 1-Benzyl-3′-(4-methoxyphenyl)-1′H-spiro[azetidine-3,2′-quinazolin]-4′(3′H)-one], the EC50 fell in the range of 1 to 10 µM.

Regarding `COC(=O)c1ccc2c(c1)NC1(CN(Cc3ccccc3)C1)N(c1ccc(OC)cc1)C2=O` [Compound 35, Methyl 1-benzyl-3′-(4-methoxyphenyl)-4′-oxo-3′,4′-dihydro-1′H-spiro[azetidine-3,2′-quinazoline]-7′-carboxylate], the EC50 is under 1 µM.

`O=C1c2ccc(F)cc2NC2(CN(Cc3ccccc3Cl)C2)N1c1ccc(OC(F)(F)F)cc1` [Compound 70, 1-(2-Chlorobenzyl)-7′-fluoro-3′-(4-(trifluoromethoxy)phenyl)-1′H-spiro[azetidine-3,2′-quinazolin]-4′(3′H)-one]: the EC50 lay in the range of 1 to 10 µM.

In the case of `CC(c1ccc(F)cc1)N1CC2(C1)Nc1cc(F)ccc1C(=O)N2c1ccc(OC(F)(F)F)cc1` (centres unmarked) [Compound 82, 7′-Fluoro-1-(1-(4-fluorophenyl)ethyl)-3′-(4-(trifluoromethoxy)phenyl)-1′H-spiro[azetidine-3,2′-quinazolin]-4′(3′H)-one], the EC50 was in the range of 1 to 10 µM.

`CCOC(=O)c1ccc2c(c1)NC1(CCN(Cc3ccc(F)c(F)c3)CC1)N(c1ccc(OC)cc1)C2=O` [Compound 1, Ethyl 1-(3,4-difluorobenzyl)-3′-(4-methoxyphenyl)-4′-oxo-3′,4′-dihydro-1′H-spiro[piperidine-4,2′-quinazoline]-7′-carboxylate]: the EC50 was under 1 µM.

With `CC(=O)c1cc2c(cc1Br)C(=O)N(c1ccc(OC(F)(F)F)cc1)C1(CCN(Cc3ccc(F)c(F)c3)CC1)N2` [Compound 12, 7′-Acetyl-6′-bromo-1-(3,4-difluorobenzyl)-3′-(4-(trifluoromethoxy)phenyl)-1′H-spiro[piperidine-4,2′-quinazolin]-4′(3′H)-one], the EC50 is under 1 µM.

As for `COCCOC(=O)c1ccc2c(c1)NC1(CCN(Cc3ccc(F)c(F)c3)CC1)N(c1ccc(OC(F)(F)F)cc1)C2=O` [Compound 99, 2-Methoxyethyl 1-(3,4-difluorobenzyl)-4′-oxo-3′-(4-(trifluoromethoxy)phenyl)-3′,4′-dihydro-1′H-spiro[piperidine-4,2′-quinazoline]-7′-carboxylate], the EC50 was in the range of 1 to 10 µM.

In the case of `COc1ccc(N2C(=O)c3ccccc3NC23CN(Cc2ccc(Cl)c(Cl)c2)C3)cc1` [Compound 56, 1-(3,4-Dichlorobenzyl)-3′-(4-methoxyphenyl)-1′H-spiro[azetidine-3,2′-quinazolin]-4′(3′H)-one], the EC50 was under 1 µM.

`O=C1c2ccc(F)cc2NC2(CCN(Cc3ccc(F)c(F)c3)CC2)N1c1ccc(Cl)cc1` [Compound 64, 3′-(4-Chlorophenyl)-1-(3,4-difluorobenzyl)-7′-fluoro-1′H-spiro[piperidine-4,2′-quinazolin]-4′(3′H)-one]: the EC50 was under 1 µM.

Take `COc1ccc(N2C(=O)c3ccc(-c4ccncc4)cc3NC23CCN(Cc2ccc(F)c(F)c2)CC3)cc1` [Compound 20, 1-(3,4-Difluorobenzyl)-3′-(4-methoxyphenyl)-7′-(pyridin-4-yl)-1′H-spiro[piperidine-4,2′-quinazolin]-4′(3′H)-one]: the EC50 was under 1 µM.

In the case of `COc1ccc(N2C(=O)c3ccc(-c4ccco4)cc3NC23CCN(Cc2ccc(F)c(F)c2)CC3)cc1` [Compound 11, 1-(3,4-Difluorobenzyl)-7′-(furan-2-yl)-3′-(4-methoxyphenyl)-1′H-spiro[piperidine-4,2′-quinazolin]-4′(3′H)-one], the EC50 is under 1 µM.

`CCOC(=O)c1ccc2c(c1)NC1(CN(C(c3ccc(F)c(F)c3)C(F)(F)F)C1)N(c1ccc(OC(F)(F)F)cc1)C2=O` (centres unmarked) [Compound 34, Ethyl 1-(1-(3,4-difluorophenyl)-2,2,2-trifluoroethyl)-4′-oxo-3′-(4-(trifluoromethoxy)phenyl)-3′,4′-dihydro-1′H-spiro[azetidine-3,2′-quinazoline]-7′-carboxylate]: the EC50 is under 1 µM.

`COc1ccc(N2C(=O)c3ccc(-c4cncs4)cc3NC23CCN(Cc2ccc(F)c(F)c2)CC3)cc1` [Compound 45, 1-(3,4-Difluorobenzyl)-3′-(4-methoxyphenyl)-7′-(thiazol-5-yl)-1′H-spiro[piperidine-4,2′-quinazolin]-4′(3′H)-one]: the EC50 was under 1 µM.

For the compound `COc1ccc(N2C(=O)c3ccc(-c4nccs4)cc3NC23CCN(Cc2ccc(F)c(F)c2)CC3)cc1` [Compound 14, 1-(3,4-Difluorobenzyl)-3′-(4-methoxyphenyl)-7′-(thiazol-2-yl)-1′H-spiro[piperidine-4,2′-quinazolin]-4′(3′H)-one], the EC50 was under 1 µM.

For `CCOC(=O)c1ccc2c(c1)NC1(CCN(Cc3ccc(F)c(F)c3)CC1)N(c1ccc(OC(F)(F)F)cc1)C2=O` [Compound 29, Ethyl 1-(3,4-difluorobenzyl)-4′-oxo-3′-(4-(trifluoromethoxy)phenyl)-3′,4′-dihydro-1′H-spiro[piperidine-4,2′-quinazoline]-7′-carboxylate], the EC50 is under 1 µM.

As to `COc1ccc(N2C(=O)c3ccc(OC)cc3NC23CCN(Cc2cccc(F)c2)CC3)cc1` [Compound 68, 1-(3-Fluorobenzyl)-7′-methoxy-3′-(4-methoxyphenyl)-1′H-spiro[piperidine-4,2′-quinazolin]-4′(3′H)-one], the EC50 fell in the range of 1 to 10 µM.

For `O=C1c2ccc(C(F)(F)F)cc2NC2(CCN(Cc3ccc(F)c(F)c3)CC2)N1c1ccc(OC(F)(F)F)cc1` [Compound 16, 1-(3,4-Difluorobenzyl)-3′-(4-(trifluoromethoxy)phenyl)-7′-(trifluoromethyl)-1′H-spiro[piperidine-4,2′-quinazolin]-4′(3′H)-one], the EC50 was under 1 µM.

As to `Cc1ccc(CN2CCC3(CC2)Nc2cc(Br)ccc2C(=O)N3c2ccc(OC(F)(F)F)cc2)o1` [Compound 113, 7′-Bromo-1-((5-methylfuran-2-yl)methyl)-3′-(4-(trifluoromethoxy)phenyl)-1′H-spiro[piperidine-4,2′-quinazolin]-4′(3′H)-one], the EC50 was 1 to 10 µM.

As to `O=C1c2ccc(Br)cc2NC2(CCN(Cc3ccccc3)CC2)N1c1ccc(OC(F)(F)F)cc1` [Compound 28, 1-Benzyl-7′-bromo-3′-(4-(trifluoromethoxy)phenyl)-1′H-spiro[piperidine-4,2′-quinazolin]-4′(3′H)-one], the EC50 was under 1 µM.

As for `COc1ccc(N2C(=O)c3ccccc3NC23CN(Cc2ccccc2Cl)C3)cc1` [Compound 50, 1-(2-Chlorobenzyl)-3′-(4-methoxyphenyl)-1′H-spiro[azetidine-3,2′-quinazolin]-4′(3′H)-one], the EC50 is under 1 µM.

`CSc1ccc(N2C(=O)c3ccc(-c4ccco4)cc3NC23CCN(Cc2ccc(F)c(F)c2)CC3)cc1` [Compound 41, 1-(3,4-Difluorobenzyl)-7′-(furan-2-yl)-3′-(4-(methylthio)phenyl)-1′H-spiro[piperidine-4,2′-quinazolin]-4′(3′H)-one]: the EC50 was under 1 µM.

On to `CC(c1ccc(F)c(F)c1)N1CCC2(CC1)Nc1cc(Br)ccc1C(=O)N2c1ccc(Cl)cc1` (centres unmarked) [Compound 7, 7′-Bromo-3′-(4-chlorophenyl)-1-(1-(3,4-difluorophenyl)ethyl)-1′H-spiro[piperidine-4,2′-quinazolin]-4′(3′H)-one], for which the EC50 is under 1 µM.

`N#Cc1cccc(CN2CC3(C2)Nc2cc(C(F)(F)F)ccc2C(=O)N3c2ccc(OC(F)(F)F)cc2)c1` [Compound 91, 3-((4′-Oxo-3′-(4-(trifluoromethoxy)phenyl)-7′-(trifluoromethyl)-3′,4′-dihydro-1′H-spiro[azetidine-3,2′-quinazolin]-1-yl)methyl)benzonitrile]: the EC50 lay within 1 to 10 µM.
